Assays:
Format in all cases: cell-based
Proteus mirabilis = assay: MIC against Gram-negative bacteria: Proteus mirabilis; settings: 5×10^5 CFU/mL
How it was run: (§1)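 Inocula prepared by growing LB cultures at 37° C to 0.5 McFarland, centrifuging at 4000×g, and resuspending in fresh medium. Final density 5×10^5 CFU/mL per well with two-fold dilutions of purified EGF domain protein; shaking incubation at 37° C.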

Enterobacter cloacae = assay: MIC against Gram-negative bacteria: Enterobacter cloacae; settings: 5×10^5 CFU/mL
How it was run: as §1

Klebsiella pneumonia = assay: MIC against Gram-negative bacteria: Klebsiella pneumonia; settings: 5×10^5 CFU/mL
How it was run: as §1

Pseudomonas aeruginosa = assay: MIC against Gram-negative bacteria: Pseudomonas aeruginosa; settings: 5×10^5 CFU/mL
How it was run: as §1

E. coli BL21 = assay: MIC against Gram-negative bacteria: E. coli BL21; settings: 5×10^5 CFU/mL
How it was run: as §1

Proteus vulgaris = assay: MIC against Gram-negative bacteria: Proteus vulgaris; settings: 5×10^5 CFU/mL
How it was run: as §1

E. coli DH5α = assay: Antibacterial activity: MIC and growth curve against E. coli DH5α in 96-well plate; settings: minimal inhibitory concentration against E. coli DH5α; 96-well plate, 5×10^5 CFU/mL, 37° C., judged after 8 h
How it was run: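 Log-phase bacteria (OD600 ~0.5) resuspended in LB at 5×10^5 CFU/mL, exposed to recombinant protein at 50, 25, 12.5 μg/mL final in triplicate, 37 °C shaking at 175 rpm. OD600 read every 30 min; MIC is lowest concentration showing no growth.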

Serratia marcescens = assay: MIC against Gram-negative bacteria: Serratia marcescens; settings: 5×10^5 CFU/mL
How it was run: as §1

Aeromonas hydrophila = assay: MIC against Gram-negative bacteria: Aeromonas hydrophila; settings: 5×10^5 CFU/mL
How it was run: as §1

Moraxella catarrhalis = assay: MIC against Gram-negative bacteria: Moraxella catarrhalis; settings: 5×10^5 CFU/mL
How it was run: as §1

Citrobacter diversus = assay: MIC against Gram-negative bacteria: Citrobacter diversus; settings: 5×10^5 CFU/mL
How it was run: as §1

[1] = Proteus mirabilis, 10 h cultivation at 37° C.
[2] = Enterobacter cloacae, 10 h cultivation at 37° C.
[3] = Klebsiella pneumonia, 10 h cultivation at 37° C.
[4] = Pseudomonas aeruginosa, 10 h cultivation at 37° C.
[5] = E. coli BL21, 10 h cultivation at 37° C.
[6] = Proteus vulgaris, 10 h cultivation at 37° C.
[7] = Serratia marcescens, 10 h cultivation at 37° C.
[8] = Aeromonas hydrophila, 10 h cultivation at 37° C.
[9] = Moraxella catarrhalis, 10 h cultivation at 37° C.
[10] = Citrobacter diversus, 10 h cultivation at 37° C.

Substance	MIC (E. coli DH5α) [µg/mL]	MIC against P. mirabilis (Proteus mirabilis; [1]) [µg/mL]	MIC against E. cloacae (Enterobacter cloacae; [2]) [µg/mL]	MIC against K. pneumonia (Klebsiella pneumonia; [3]) [µg/mL]	MIC against P. aeruginosa (Pseudomonas aeruginosa; [4]) [µg/mL]	MIC against E. coli BL21 (E. coli BL21; [5]) [µg/mL]	MIC against P. vulgaris (Proteus vulgaris; [6]) [µg/mL]	MIC against S. marcescens (Serratia marcescens; [7]) [µg/mL]	MIC against A. hydrophila (Aeromonas hydrophila; [8]) [µg/mL]	MIC against M. catarrhalis (Moraxella catarrhalis; [9]) [µg/mL]	MIC against C. diversus (Citrobacter diversus; [10]) [µg/mL]	further results
PRT453 (DINECEQFGTCPQHCRNTKGSYECVCADGFT; listed as Homo sapiens)	25	–	–	–	–	–	–	–	–	–	–	MIC against P. mirabilis (Proteus mirabilis; 96-well plate, 37° C., 10 h): 25 µg/mL; MIC against E. cloacae (Enterobacter cloacae; 96-well plate, 37° C., 10 h): 25 µg/mL; MIC against K. pneumonia (Klebsiella pneumonia; 96-well plate, 37° C., 10 h): 50 µg/mL; MIC against P. aeruginosa (Pseudomonas aeruginosa; 96-well plate, 37° C., 10 h): 25 µg/mL; MIC against E. coli BL21 (E. coli BL21; 96-well plate, 37° C., 10 h): 12.5 µg/mL; MIC against P. vulgaris (Proteus vulgaris; 96-well plate, 37° C., 10 h): 12.5 µg/mL; MIC against S. marcescens (Serratia marcescens; 96-well plate, 37° C., 10 h): 25 µg/mL; MIC against A. hydrophila (Aeromonas hydrophila; 96-well plate, 37° C., 10 h): 12.5 µg/mL; MIC against M. catarrhalis (Moraxella catarrhalis; 96-well plate, 37° C., 10 h): 50 µg/mL; MIC against C. diversus (Citrobacter diversus; 96-well plate, 37° C., 10 h): 25 µg/mL
PRT1422 (DVDDCILEPSPCPQRCVNTQGGFECHCYPNYDLVDGECV; listed as Homo sapiens)	12.5	12.5	12.5	50	12.5	12.5	50	12.5	50	50	12.5	–
PRT1283 (NTDDCVDHACANGGVCVDGVGNYTCQCPLQYEGKACE; listed as Homo sapiens)	12.5	–	–	–	–	–	–	–	–	–	–	MIC against P. mirabilis (Proteus mirabilis; Proteus mirabilis, 96-well plate, 37° C., 10 h): 25 µg/mL; MIC against E. cloacae (Enterobacter cloacae; Enterobacter cloacae, 96-well plate, 37° C., 10 h): 12.5 µg/mL; MIC against K. pneumonia (Klebsiella pneumonia; Klebsiella pneumonia, 96-well plate, 37° C., 10 h): 50 µg/mL; MIC against P. aeruginosa (Pseudomonas aeruginosa; Pseudomonas aeruginosa, 96-well plate, 37° C., 10 h): 12.5 µg/mL; MIC against E. coli BL21 (E. coli BL21; E. coli BL21, 96-well plate, 37° C., 10 h): 50 µg/mL; MIC against P. vulgaris (Proteus vulgaris; Proteus vulgaris, 96-well plate, 37° C., 10 h): 12.5 µg/mL; MIC against S. marcescens (Serratia marcescens; Serratia marcescens, 96-well plate, 37° C., 10 h): 25 µg/mL; MIC against A. hydrophila (Aeromonas hydrophila; Aeromonas hydrophila, 96-well plate, 37° C., 10 h): 12.5 µg/mL; MIC against M. catarrhalis (Moraxella catarrhalis; Moraxella catarrhalis, 96-well plate, 37° C., 10 h): 12.5 µg/mL; MIC against C. diversus (Citrobacter diversus; Citrobacter diversus, 96-well plate, 37° C., 10 h): 50 µg/mL
PRT802 (SNRCQCQNGALCNPITGACVCAAGFRGWRCE; listed as Homo sapiens)	12.5	–	–	–	–	–	–	–	–	–	–	MIC (μg/mL) P. mirabilis (Proteus mirabilis; P. mirabilis, 10 h cultivation at 37° C.): 25 µg/mL; MIC (μg/mL) E. cloacae (Enterobacter cloacae; E. cloacae, 10 h cultivation at 37° C.): 12.5 µg/mL; MIC (μg/mL) K. pneumonia (Klebsiella pneumonia; K. pneumonia, 10 h cultivation at 37° C.): 12.5 µg/mL; MIC (μg/mL) P. aeruginosa (Pseudomonas aeruginosa; P. aeruginosa, 10 h cultivation at 37° C.): 25 µg/mL; MIC (μg/mL) E. coli BL21 (E. coli BL21; [5]): 12.5 µg/mL; MIC (μg/mL) P. vulgaris (Proteus vulgaris; P. vulgaris, 10 h cultivation at 37° C.): 25 µg/mL; MIC (μg/mL) S. marcescens (Serratia marcescens; S. marcescens, 10 h cultivation at 37° C.): 12.5 µg/mL; MIC (μg/mL) A. hydrophila (Aeromonas hydrophila; A. hydrophila, 10 h cultivation at 37° C.): 12.5 µg/mL; MIC (μg/mL) M. catarrhalis (Moraxella catarrhalis; M. catarrhalis, 10 h cultivation at 37° C.): 12.5 µg/mL; MIC (μg/mL) C. diversus (Citrobacter diversus; C. diversus, 10 h cultivation at 37° C.): 25 µg/mL
PRT1364 (GELKCPNGCSGHGRCVNGQCVCDEGYTGEDCS; listed as Homo sapiens)	25	12.5	25	50	25	12.5	12.5	12.5	25	12.5	12.5	–
PRT1421 (ATQSCNDLCEHFCVPNPDQPGSYSCMCETGYRLAADQHRCE; listed as Homo sapiens)	12.5	25	12.5	50	12.5	50	12.5	25	50	12.5	25	–
